Patent publication US8192962B2, “Processes for detecting toxic substances” (Daikin Industries, Ltd., priority 2001, dated 2012)

Test system: Mitochondria-located protein genes
Assay: DNA chip mRNA expression in yeast, mitochondria-located protein genes (Table 2)
Assay type: cell-based, Saccharomyces cerevisiae S288C
Conditions: cells incubated two hours with the chemical substance
Procedure, shortened: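 Value is the scanned fluorescence intensity ratio of exposed versus chemical-free cells. Log-phase S288C yeast in YPD at 25° C. received one toxic substance for two hours, dosed to slow growth without killing; Cy3/Cy5-labeled cDNA from oligo-dT-purified mRNA was hybridized to a whole-genome chip at 65° C.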

Q: For `N#Cc1c(Cl)c(Cl)c(Cl)c(C#N)c1Cl` [(9), 2,4,5,6-tetrachloro-1,3-benzenedicarbonitrile], which “The level of expressed mRNA in the presence of chemical substance/The level of expressed mRNA in the absence of chemical substance” value (yeast gene YAL039C) is on record?
A: 1.6

Q: And the “The level of expressed mRNA in the presence of chemical substance/The level of expressed mRNA in the absence of chemical substance” value (yeast gene YBL022C)?
A: 2.8

Q: What about the “The level of expressed mRNA in the presence of chemical substance/The level of expressed mRNA in the absence of chemical substance” value (yeast gene YBL030C) of the same compound?
A: 0.4

Q: And the “The level of expressed mRNA in the presence of chemical substance/The level of expressed mRNA in the absence of chemical substance” value (yeast gene YBL038W)?
A: 1.4

Q: What about the “The level of expressed mRNA in the presence of chemical substance/The level of expressed mRNA in the absence of chemical substance” value (yeast gene YBL099W) of the same compound?
A: 0.9

Q: And the “The level of expressed mRNA in the presence of chemical substance/The level of expressed mRNA in the absence of chemical substance” value (yeast gene YBR003W)?
A: 1.0

Q: What about the “The level of expressed mRNA in the presence of chemical substance/The level of expressed mRNA in the absence of chemical substance” value (yeast gene YBR044C) of the same compound?
A: 0.8

Q: And the “The level of expressed mRNA in the presence of chemical substance/The level of expressed mRNA in the absence of chemical substance” value (yeast gene YBR091C)?
A: 0.7

Q: And the “The level of expressed mRNA in the presence of chemical substance/The level of expressed mRNA in the absence of chemical substance” value (yeast gene YBR122C)?
A: 1.1

Q: What about the “The level of expressed mRNA in the presence of chemical substance/The level of expressed mRNA in the absence of chemical substance” value (yeast gene YBR185C) of the same compound?
A: 0.9

Q: What about the “The level of expressed mRNA in the presence of chemical substance/The level of expressed mRNA in the absence of chemical substance” value (yeast gene YBR221C) of the same compound?
A: 1.0

Q: And the “The level of expressed mRNA in the presence of chemical substance/The level of expressed mRNA in the absence of chemical substance” value (yeast gene YBR251W)?
A: 0.5

Q: And the “The level of expressed mRNA in the presence of chemical substance/The level of expressed mRNA in the absence of chemical substance” value (yeast gene YBR282W)?
A: 1.0

Q: What about the “The level of expressed mRNA in the presence of chemical substance/The level of expressed mRNA in the absence of chemical substance” value (yeast gene YCL057W) of the same compound?
A: 4.2

Q: And the “The level of expressed mRNA in the presence of chemical substance/The level of expressed mRNA in the absence of chemical substance” value (yeast gene YCR046C)?
A: 1.9

Q: And the “The level of expressed mRNA in the presence of chemical substance/The level of expressed mRNA in the absence of chemical substance” value (yeast gene YCR083W)?
A: 1.8

Q: And the “The level of expressed mRNA in the presence of chemical substance/The level of expressed mRNA in the absence of chemical substance” value (yeast gene YDL067C)?
A: 0.9

Q: And the “The level of expressed mRNA in the presence of chemical substance/The level of expressed mRNA in the absence of chemical substance” value (yeast gene YDL181W)?
A: 0.7

Q: And the “The level of expressed mRNA in the presence of chemical substance/The level of expressed mRNA in the absence of chemical substance” value (yeast gene YDL198C)?
A: 1.9

Q: And the “The level of expressed mRNA in the presence of chemical substance/The level of expressed mRNA in the absence of chemical substance” value (yeast gene YDR079W)?
A: 0.9

Q: What about the “The level of expressed mRNA in the presence of chemical substance/The level of expressed mRNA in the absence of chemical substance” value (yeast gene YDR178W) of the same compound?
A: 0.9

Q: And the “The level of expressed mRNA in the presence of chemical substance/The level of expressed mRNA in the absence of chemical substance” value (yeast gene YDR231C)?
A: 1.5

Q: And the “The level of expressed mRNA in the presence of chemical substance/The level of expressed mRNA in the absence of chemical substance” value (yeast gene YDR258C)?
A: 4.9

Q: What about the “The level of expressed mRNA in the presence of chemical substance/The level of expressed mRNA in the absence of chemical substance” value (yeast gene YDR298C) of the same compound?
A: 1.0

Q: What about the “The level of expressed mRNA in the presence of chemical substance/The level of expressed mRNA in the absence of chemical substance” value (yeast gene YDR347W) of the same compound?
A: 0.8

Q: And the “The level of expressed mRNA in the presence of chemical substance/The level of expressed mRNA in the absence of chemical substance” value (yeast gene YDR377W)?
A: 1.0

Q: And the “The level of expressed mRNA in the presence of chemical substance/The level of expressed mRNA in the absence of chemical substance” value (yeast gene YDR529C)?
A: 0.5

Q: And the “The level of expressed mRNA in the presence of chemical substance/The level of expressed mRNA in the absence of chemical substance” value (yeast gene YEL024W)?
A: 0.7

Q: What about the “The level of expressed mRNA in the presence of chemical substance/The level of expressed mRNA in the absence of chemical substance” value (yeast gene YEL039C) of the same compound?
A: 1.2

Q: And the “The level of expressed mRNA in the presence of chemical substance/The level of expressed mRNA in the absence of chemical substance” value (yeast gene YER178W)?
A: 1.7

Q: And the “The level of expressed mRNA in the presence of chemical substance/The level of expressed mRNA in the absence of chemical substance” value (yeast gene YFL016C)?
A: 6.4

Q: And the “The level of expressed mRNA in the presence of chemical substance/The level of expressed mRNA in the absence of chemical substance” value (yeast gene YGL018C)?
A: 0.5

Q: And the “The level of expressed mRNA in the presence of chemical substance/The level of expressed mRNA in the absence of chemical substance” value (yeast gene YGL187C)?
A: 0.6

Q: And the “The level of expressed mRNA in the presence of chemical substance/The level of expressed mRNA in the absence of chemical substance” value (yeast gene YGL191W)?
A: 1.1

Q: What about the “The level of expressed mRNA in the presence of chemical substance/The level of expressed mRNA in the absence of chemical substance” value (yeast gene YGR008C) of the same compound?
A: 3.1

Q: And the “The level of expressed mRNA in the presence of chemical substance/The level of expressed mRNA in the absence of chemical substance” value (yeast gene YGR028W)?
A: 1.7

Q: What about the “The level of expressed mRNA in the presence of chemical substance/The level of expressed mRNA in the absence of chemical substance” value (yeast gene YGR062C) of the same compound?
A: 1.0

Q: And the “The level of expressed mRNA in the presence of chemical substance/The level of expressed mRNA in the absence of chemical substance” value (yeast gene YGR076C)?
A: 1.2

Q: And the “The level of expressed mRNA in the presence of chemical substance/The level of expressed mRNA in the absence of chemical substance” value (yeast gene YGR082W)?
A: 0.6

Q: What about the “The level of expressed mRNA in the presence of chemical substance/The level of expressed mRNA in the absence of chemical substance” value (yeast gene YGR174C) of the same compound?
A: 1.8

Q: What about the “The level of expressed mRNA in the presence of chemical substance/The level of expressed mRNA in the absence of chemical substance” value (yeast gene YGR244C) of the same compound?
A: 1.4

Q: And the “The level of expressed mRNA in the presence of chemical substance/The level of expressed mRNA in the absence of chemical substance” value (yeast gene YHR008C)?
A: 1.7

Q: And the “The level of expressed mRNA in the presence of chemical substance/The level of expressed mRNA in the absence of chemical substance” value (yeast gene YIL155C)?
A: 2.5

Q: What about the “The level of expressed mRNA in the presence of chemical substance/The level of expressed mRNA in the absence of chemical substance” value (yeast gene YJL096W) of the same compound?
A: 1.0

Q: And the “The level of expressed mRNA in the presence of chemical substance/The level of expressed mRNA in the absence of chemical substance” value (yeast gene YJL102W)?
A: 3.1

Q: And the “The level of expressed mRNA in the presence of chemical substance/The level of expressed mRNA in the absence of chemical substance” value (yeast gene YJL133W)?
A: 0.6

Q: And the “The level of expressed mRNA in the presence of chemical substance/The level of expressed mRNA in the absence of chemical substance” value (yeast gene YJL166W)?
A: 1.3

Q: And the “The level of expressed mRNA in the presence of chemical substance/The level of expressed mRNA in the absence of chemical substance” value (yeast gene YJL180C)?
A: 1.4

Q: What about the “The level of expressed mRNA in the presence of chemical substance/The level of expressed mRNA in the absence of chemical substance” value (yeast gene YJR045C) of the same compound?
A: 3.2

Q: What about the “The level of expressed mRNA in the presence of chemical substance/The level of expressed mRNA in the absence of chemical substance” value (yeast gene YJR077C) of the same compound?
A: 0.4
